The text below walks through data of paper PMC6828666, “Discovery of holoenzyme-disrupting chemicals as substrate-selective CK2 inhibitors” (Scientific Reports, 2019).

Structures can show the parent of a compound that is named as a salt.

The target of assay [1] is [35S]methionine-labeled CK2α (human) (UniProt P68400). In words: radioligand binding; biotinylated MBP-CK2β (250 ng/well) on streptavidin-coated 96-well plates; soluble [35S]methionine-labeled CK2α (10^5 cpm) with or without competitor; 50 mM Tris/HCl pH 7.2, 0.4 M NaCl; 1 h at room temperature, washed three times, scintillation counting.
Chain of [35S]methionine-labeled CK2α (human) (P68400 whole entry): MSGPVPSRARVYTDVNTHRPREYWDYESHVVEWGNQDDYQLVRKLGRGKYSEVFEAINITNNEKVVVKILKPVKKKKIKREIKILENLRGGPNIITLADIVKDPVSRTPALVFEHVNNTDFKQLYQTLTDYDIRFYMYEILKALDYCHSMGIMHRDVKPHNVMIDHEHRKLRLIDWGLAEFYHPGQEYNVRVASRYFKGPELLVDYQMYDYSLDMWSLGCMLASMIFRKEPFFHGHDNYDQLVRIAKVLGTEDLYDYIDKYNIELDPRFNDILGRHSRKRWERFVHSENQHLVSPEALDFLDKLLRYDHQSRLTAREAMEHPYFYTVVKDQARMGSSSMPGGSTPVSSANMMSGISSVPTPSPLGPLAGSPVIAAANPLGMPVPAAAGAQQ
In a further assay the target is CK2α (Homo sapiens, UniProt P68400). In words: SPR binding studies on captured GST-CK2α. The conditions noted are these: surface plasmon resonance. The method, then: SPR competition studies (Fig. 2i) were performed using a BIAcore 3000 instrument (BIAcore AB) equipped with a CM5 sensor chip (BIAcore AB). After activation with a solution of N-hydroxysuccinimide and N-ethyl-N-(dimethylaminopropyl)carbodiimide hydrochloride (coupling solution BIAcore AB), the anti-GST antibody diluted at 30 μg/ml in 10 mM acetate buffer pH 5.0 was injected at a flow rate of 5 μL/min for 7 min. All the surfaces were blocked with a 3 min injection at 10 μL/min of 1 M ethanolamine, pH 8.0. GST-CK2α (50 μg/ml) was immobilized on the surface at a flow rate of 5 μL/min in HBS (10 mM Hepes pH 7.3, 0.15 M NaCl, 3 mM EDTA, 0.005% polysorbate 20). MBP-CK2β diluted at 50 μg/ml in HBS buffer was injected over the surface at a flow rate of 5 μL/min in presence of various compound 1 concentration. Regeneration of the surfaces was achieved by injection of 10 mM glycine-HCl pH 2.2. SPR binding studies (Supplementary Fig. S7) were performed using a Reichert SR7000DC instrument optical biosensor (Reichert Technologies) equipped with a CMD500m sensor chip obtained from XanTec Bioanalytics. CK2α was immobilized by a capturing approach using a monoclonal anti-GST antibody (27 kDa, Clone GST-R 6G9 produced in rat, SAB4200055 Sigma Aldrich). Prior to use, the anti-GST antibodies were purified twice by micro dialysis at 4 °C (Membrane: dialysis tubing benzoylated, 9 mm, D2272-5FT) in 10 mM sodium acetate, pH = 5. Anti-GST antibodies were immobilized using amine-coupling chemistry at 12 °C. The surfaces of all two flow cells were activated for 7 min with a 1:1 mixture of 0.1 M NHS (N-hydroxysuccinimide) and 0.1 M EDC (3-(N,N-dimethylamino) propyl-N-ethylcarbodiimide) at a flow rate of 10 μL/min. The antibody at a concentration of 30 μg/mL in 10 mM sodium acetate, pH 5.0, was immobilized at a density of 2000 RU on flow cell 2; flow cell 1 was left blank to serve as a reference surface. All the surfaces were blocked with a 3 min injection at 10 μL/min of 1 M ethanolamine, pH 8.0. GST tagged CK2α at a concentration of 50 μg/mL in 10 mM HEPES, 150 mM NaCl, 3 mM EDTA, 0.005% (v/v) polysorbate 20, pH = 7.4 was captured at a density of 900 RU on flow cell 2. In order to collect kinetic binding data, analytes in 10 mM HEPES, 150 mM NaCl, 3 mM EDTA, 0.005% (v/v) polysorbate 20, 1% DMSO (v/v), 100 μM ATP, pH = 7.4 were injected over the two flow cells at concentrations of 50, 25, 12.5, 6.25, 3.12, 1.56 μM at a flow rate of 25 μL/min and at a temperature of 25 °C. The complex was allowed to associate and dissociate for 120 s. Duplicate injections (in random order) of each sample and a buffer blank were flowed over the two surfaces. Affinities were obtained after treatments (DMSO calibration, blank and references subtractions) using the software Scrubber 2.0c.
Chain of CK2α (P68400 whole entry): as above
Fig. S7. Binding kinetics of compounds 2-6 by surface plasmon resonance. For each compound, sensorgrams (black line) and global fits (orange line) are depicted with the corresponding chemical structure and the fitted kinetics parameters. Experiments show representative data of two identical repeats.
For orientation: SPR reads the build-up and loss of mass on a sensor chip optically.

For another assay, the target named is T1, CK2α2β2 holoenzyme (Homo sapiens, UniProt P68400).
T1 construct: made in house; host or cells: Escherichia coli (CK2α)
T1 sequence (P68400 whole entry): as above
In words: CK2 kinase assay with CK2β-dependent peptide substrate (eIF2-derived). The class given is biochemical. The conditions noted are these: compound at 50 μM; CK2β-dependent peptide substrate. The method, then: First, all the compounds were dissolved at 200 μM in 50 mM Tris-HCl pH 7.5 buffer containing 0.1 M NaCl and 5% DMSO; the compounds that precipitated under these conditions were discarded. The 32 remaining compounds were diluted at 200 μM in the kinase buffer and centrifuged at 14,000 g. The supernatant was then assayed for ability to inhibit phosphorylation of a CK2β-dependent peptide substrate. For this, a 22-residue long N-terminal fragment of the eukaryotic translation initiation factor 2 (eIF2), known to be exclusively phosphorylated by the CK2α2β2 holoenzyme[4] was used as a substrate. […]
Final concentration of ATP was 100 μM. Assays were performed under linear kinetic conditions for 5 min at room temperature before termination by the addition of 60 μL of 4% TCA. ^32P incorporation in peptide substrate was determined as previously described. […]

In a further assay the test system is MCF10A cells. In words: Cell growth inhibition (IncuCyte). The class given is cell-based, human. The conditions noted are these: 24 h. The method, then: Cells grown on 96-well flat-bottomed plates (Corning Falcon) were tracked using an Essen IncuCyte Zoom live-cell microscopy instrument, an automated live cell imager with high-throughput capabilities and built-in data analysis. Experiments were conducted at 37 °C and 5% CO2. The software incorporated into the IncuCyte Zoom was used to analyze the images.
MCF10A and MDA-MB231 cells were seeded into 96-well plates at a density (1 × 10^4 and 2 × 10^4 cells/well, respectively) and allowed to attach overnight. Bright field images were captured every 3 h for the duration of the experiment. The detection software was calibrated specifically for MCF10A and MDA-MB231 to ensure accurate distinction of cells from empty space. Cell proliferation data were obtained by the cell confluence increment in each of the treatments and expressed as percentage relative to that of control cells.
Fig. S9. […] (a) MCF10A cells were incubated with increasing concentrations of 6 for 24 h. (b) Inset: western blot analysis of CK2 subunits in parental MCF10A cells (WT) or CK2β knockdown MCF10A cells (∆CK2β). Uncropped blots are shown in Supplementary Fig. S16. MCF10A WT (r,p) or MCF10A ∆CK2β (○,●) were incubated with DMSO (r,○) or 50 μM 6 (p,●) for the indicated time. Cell growth was monitored using an Essen IncuCyte Zoom live-cell microscopy incubator. Images were captured every 15 min for the duration of the experiment. […]

Assay [2] relates to panels of different kinases. On the set-up: method as in PMID 28451126. The conditions noted are these: cited from earlier work.

The molecule CK2β-derived cyclic peptide, Pc gave a percent inhibition of CK2α/CK2β complex formation at 60 μM in assay [1] of 90%.

For orientation: Kd means the free concentration of one partner at which half of the binding sites on the other are occupied at equilibrium, for simple one-to-one binding. One may read the inhibition as the drop in the measured response relative to a control, in per cent. On CK2α, `O=C(OCC1CCN(CCNS(=O)(=O)c2ccccc2)CC1)c1c[nH]c2ccc(F)cc12` [Compound 5, (1-(2-(Phenylsulfonamido)ethyl)piperidin-4-yl)methyl 5-fluoro-1H-indole-3-carboxylate hydrochloride] showed a Kd of 43 ± 2 µM. Moreover, at 50 µM the inhibition on CK2α2β2 holoenzyme was 66%.

`CS(=O)(=O)NCCN1CCC(COC(=O)c2c[nH]c3ccc(F)cc23)CC1` [Compound 2, (1-(2-(Methylsulfonamido)ethyl)piperidin-4-yl)methyl 5-fluoro-1H-indole-3-carboxylate hydrochloride]: binding at CK2α was characterised by a dissociation constant (Kd) of 44 ± 6 µM. For the same molecule, the inhibition at 50 µM against CK2α2β2 holoenzyme stood at 25%.

As usually defined, the GI50 is the concentration at which growth is held to half of that of the control. A lower GI50 goes with more potent growth inhibition. Regarding `COc1[nH]c2ccc(F)cc2c1C(=O)OCC1CCN(CCNS(=O)(=O)c2ccccc2)CC1.Cl` [Compound 6, 1-(2-(Phenylsulfonamido)ethyl)piperidin-4-yl)methyl 5-fluoro-2-methoxy-1H-indole-3-carboxylate hydrochloride], the GI50 in the assay with MCF10A cells turned out to be 22 ± 3 µM. Moreover, the Kd on CK2α was found to be 30 ± 2 µM.

Take `O=C(O)c1ccc2c(c1)nc(Nc1cccc(Cl)c1)c1ccncc12` [CX-4945]: in assay [2], the Gini coefficient is 0.62.
